From ChEMBL document CHEMBL1201862, “PubChem BioAssay data set” (2004)
Active and inactive are the calls of the source.

Columns and labels:
[1] = biological target: Peroxisome proliferator-activated receptor gamma/Nuclear receptor corepressor 2 (Homo sapiens, UniProt P37231+Q9Y618); experiment: Counterscreen for NR2E3 inverse agonists: TR-FRET-based biochemical high throughput dose response assay to identify inverse agonists of the interaction between peroxisome proliferator-activated receptor gamma (PPARg) and nuclear receptor co-repressor 2 (NCOR2).; assay type: functional
Chain of Peroxisome proliferator-activated receptor gamma/Nuclear receptor corepressor 2 (P37231 whole entry): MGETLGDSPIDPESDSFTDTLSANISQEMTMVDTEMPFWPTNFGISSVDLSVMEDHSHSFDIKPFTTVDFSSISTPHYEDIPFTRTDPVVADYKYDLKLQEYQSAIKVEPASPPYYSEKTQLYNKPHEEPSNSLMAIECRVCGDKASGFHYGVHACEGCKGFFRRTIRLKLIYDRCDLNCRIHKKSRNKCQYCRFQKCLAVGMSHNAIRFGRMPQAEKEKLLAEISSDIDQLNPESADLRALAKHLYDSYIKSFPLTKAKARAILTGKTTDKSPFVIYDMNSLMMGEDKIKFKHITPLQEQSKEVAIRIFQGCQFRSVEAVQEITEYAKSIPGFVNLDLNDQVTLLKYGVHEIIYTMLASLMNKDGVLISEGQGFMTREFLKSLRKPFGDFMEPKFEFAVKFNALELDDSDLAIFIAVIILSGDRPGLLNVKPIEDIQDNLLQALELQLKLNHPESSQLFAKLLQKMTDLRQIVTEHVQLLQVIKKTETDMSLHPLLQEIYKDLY
Chain of Peroxisome proliferator-activated receptor gamma/Nuclear receptor corepressor 2 (Q9Y618 whole entry): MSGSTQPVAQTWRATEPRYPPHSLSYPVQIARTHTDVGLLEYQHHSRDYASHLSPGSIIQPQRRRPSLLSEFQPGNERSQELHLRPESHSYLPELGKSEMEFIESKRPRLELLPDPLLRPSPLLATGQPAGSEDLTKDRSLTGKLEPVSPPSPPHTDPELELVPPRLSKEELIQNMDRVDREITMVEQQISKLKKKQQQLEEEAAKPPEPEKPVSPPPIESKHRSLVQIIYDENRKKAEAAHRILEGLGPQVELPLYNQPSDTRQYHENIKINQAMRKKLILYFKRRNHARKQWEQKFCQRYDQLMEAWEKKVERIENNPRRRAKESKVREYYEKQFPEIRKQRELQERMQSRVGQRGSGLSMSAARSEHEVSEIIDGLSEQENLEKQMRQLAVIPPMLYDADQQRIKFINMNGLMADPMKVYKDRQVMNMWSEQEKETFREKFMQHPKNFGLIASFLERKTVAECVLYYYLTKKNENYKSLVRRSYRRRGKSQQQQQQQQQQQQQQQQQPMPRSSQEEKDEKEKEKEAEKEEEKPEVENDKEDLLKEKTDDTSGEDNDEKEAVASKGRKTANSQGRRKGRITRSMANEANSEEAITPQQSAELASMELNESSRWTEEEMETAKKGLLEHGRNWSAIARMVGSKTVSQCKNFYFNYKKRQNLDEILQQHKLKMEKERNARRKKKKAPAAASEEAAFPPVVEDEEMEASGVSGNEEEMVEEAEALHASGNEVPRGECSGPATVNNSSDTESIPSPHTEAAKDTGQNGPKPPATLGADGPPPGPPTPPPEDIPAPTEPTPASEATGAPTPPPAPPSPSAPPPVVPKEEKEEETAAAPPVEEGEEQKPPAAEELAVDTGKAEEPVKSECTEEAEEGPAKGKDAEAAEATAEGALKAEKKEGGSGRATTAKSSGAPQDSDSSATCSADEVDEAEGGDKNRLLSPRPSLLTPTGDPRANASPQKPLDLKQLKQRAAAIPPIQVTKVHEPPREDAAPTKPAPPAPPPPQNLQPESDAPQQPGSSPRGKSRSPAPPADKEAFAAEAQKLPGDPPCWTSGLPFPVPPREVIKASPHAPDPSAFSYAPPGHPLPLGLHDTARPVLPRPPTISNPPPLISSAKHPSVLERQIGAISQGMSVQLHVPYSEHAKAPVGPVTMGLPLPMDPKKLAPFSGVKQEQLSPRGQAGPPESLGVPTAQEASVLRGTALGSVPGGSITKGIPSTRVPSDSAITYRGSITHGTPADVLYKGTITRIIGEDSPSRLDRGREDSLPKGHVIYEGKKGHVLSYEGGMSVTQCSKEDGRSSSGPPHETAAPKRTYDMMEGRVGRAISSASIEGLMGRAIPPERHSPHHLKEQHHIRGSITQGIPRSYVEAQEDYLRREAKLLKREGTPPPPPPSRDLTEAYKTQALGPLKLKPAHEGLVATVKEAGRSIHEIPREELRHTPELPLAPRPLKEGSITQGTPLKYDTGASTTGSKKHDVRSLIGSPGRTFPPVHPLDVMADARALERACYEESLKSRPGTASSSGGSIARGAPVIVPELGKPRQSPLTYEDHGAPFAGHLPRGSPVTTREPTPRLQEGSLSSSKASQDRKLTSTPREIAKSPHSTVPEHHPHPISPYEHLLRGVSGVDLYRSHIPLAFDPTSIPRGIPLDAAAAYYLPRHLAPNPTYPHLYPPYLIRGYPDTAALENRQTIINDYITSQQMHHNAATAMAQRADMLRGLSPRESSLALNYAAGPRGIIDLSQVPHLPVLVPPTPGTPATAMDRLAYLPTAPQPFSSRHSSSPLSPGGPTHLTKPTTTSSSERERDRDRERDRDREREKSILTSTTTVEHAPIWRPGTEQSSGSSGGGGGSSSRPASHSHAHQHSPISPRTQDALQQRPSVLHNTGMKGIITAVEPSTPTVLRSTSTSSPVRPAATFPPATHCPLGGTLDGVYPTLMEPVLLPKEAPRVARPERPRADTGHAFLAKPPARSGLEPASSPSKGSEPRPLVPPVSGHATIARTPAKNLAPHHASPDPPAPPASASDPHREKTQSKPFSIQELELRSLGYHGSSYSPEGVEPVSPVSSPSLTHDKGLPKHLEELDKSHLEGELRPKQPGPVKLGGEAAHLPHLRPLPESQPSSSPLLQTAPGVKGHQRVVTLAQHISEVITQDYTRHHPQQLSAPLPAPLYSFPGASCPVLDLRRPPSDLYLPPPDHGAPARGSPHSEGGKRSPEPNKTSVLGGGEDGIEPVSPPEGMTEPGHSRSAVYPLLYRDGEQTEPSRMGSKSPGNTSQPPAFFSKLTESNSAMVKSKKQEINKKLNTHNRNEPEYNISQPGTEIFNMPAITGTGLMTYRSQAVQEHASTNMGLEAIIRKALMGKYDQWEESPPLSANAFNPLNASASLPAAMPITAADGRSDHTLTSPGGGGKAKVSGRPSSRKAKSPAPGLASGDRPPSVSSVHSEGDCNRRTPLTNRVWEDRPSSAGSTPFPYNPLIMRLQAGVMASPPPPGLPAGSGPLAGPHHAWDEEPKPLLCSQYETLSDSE

[2] = biological target: Photoreceptor-specific nuclear receptor (Homo sapiens, UniProt Q9Y5X4); experiment: ligands suppressing NR2E3 nuclear receptor activity – biochemical, TR-FRET, dose response (AID 463256); assay type: functional
Chain of Photoreceptor-specific nuclear receptor (Q9Y5X4 whole entry): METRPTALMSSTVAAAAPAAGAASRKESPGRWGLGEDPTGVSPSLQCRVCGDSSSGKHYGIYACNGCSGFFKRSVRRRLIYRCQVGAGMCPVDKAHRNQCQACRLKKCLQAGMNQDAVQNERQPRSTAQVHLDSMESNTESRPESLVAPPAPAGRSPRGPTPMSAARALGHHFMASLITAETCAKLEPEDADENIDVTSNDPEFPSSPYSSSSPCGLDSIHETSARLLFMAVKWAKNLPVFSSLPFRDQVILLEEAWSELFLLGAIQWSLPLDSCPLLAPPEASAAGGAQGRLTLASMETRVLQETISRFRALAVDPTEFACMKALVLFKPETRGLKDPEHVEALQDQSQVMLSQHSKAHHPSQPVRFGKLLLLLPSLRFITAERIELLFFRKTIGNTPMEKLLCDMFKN

[3] = biological target: T1, Epstein-Barr nuclear antigen 1 (Epstein-Barr virus (strain B95-8) (HHV-4) (Human herpesvirus 4), UniProt P03211); experiment: inhibition of EBV nuclear antigen 1 DNA binding – biochemical, fluorescence polarization, 1536-well, dose response (AID 2381); parameters: species or system human gammaherpesvirus 4;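 also: fluorescence polarization of a Cy5 DNA probe bound by EBNA-1 protein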
T1 sequence (P03211 whole entry): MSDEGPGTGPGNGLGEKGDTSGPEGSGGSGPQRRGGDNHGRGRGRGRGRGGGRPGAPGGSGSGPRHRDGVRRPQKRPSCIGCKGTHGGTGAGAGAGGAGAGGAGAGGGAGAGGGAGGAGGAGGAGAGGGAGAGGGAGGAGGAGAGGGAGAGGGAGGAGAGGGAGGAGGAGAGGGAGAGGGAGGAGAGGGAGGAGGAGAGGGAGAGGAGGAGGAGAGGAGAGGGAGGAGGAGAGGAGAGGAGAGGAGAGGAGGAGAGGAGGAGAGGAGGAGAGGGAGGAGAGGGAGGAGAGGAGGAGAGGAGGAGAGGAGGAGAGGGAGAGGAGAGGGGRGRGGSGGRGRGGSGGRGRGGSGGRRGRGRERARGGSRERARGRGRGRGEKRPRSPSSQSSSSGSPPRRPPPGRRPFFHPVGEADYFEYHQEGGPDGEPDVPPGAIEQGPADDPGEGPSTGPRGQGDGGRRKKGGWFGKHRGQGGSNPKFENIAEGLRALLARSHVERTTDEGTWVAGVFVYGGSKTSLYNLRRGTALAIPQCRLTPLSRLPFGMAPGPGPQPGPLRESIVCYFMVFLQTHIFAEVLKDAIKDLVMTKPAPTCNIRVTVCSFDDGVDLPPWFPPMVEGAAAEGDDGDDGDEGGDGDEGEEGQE

[4] = Trypanosoma cruzi growth suppression in host cells – NIH3T3 host cells, beta-gal luminescence, confirmation (AID 2044); assay type: functional, cell-based;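 also: intracellular parasites grown in NIH/3T3 mouse fibroblasts as host cells; luminescent beta-galactosidase reporter signal from transgenic T. cruzi replicating inside host cells; inhibitors lower the luminescence signal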
[5] = viability of PTEN-deleted HCT116 cells – cell-based, HCT116 PTEN knockout, dose response (AID 1047); assay type: functional;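 also: HCT116 colon tumor cells with PTEN knocked out; cells exposed to compound for 60 hours before readout; potency for loss of cell viability measured by luminescence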
[6] = biological target: T2, Lytic switch protein BZLF1 (Epstein-Barr virus (strain B95-8) (HHV-4) (Human herpesvirus 4), UniProt P03206); experiment: inhibition of BZLF1 ZTA DNA binding – biochemical, fluorescence polarization, Epstein-Barr virus, 1536-well, counter-screen for EBNA-1 inhibitor project, dose response (AID 2377); parameters: species or system human gammaherpesvirus 4;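 also: fluorescence polarization of Cy5-labelled ZRE DNA probe bound by purified Zta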
T2 sequence (P03206 whole entry): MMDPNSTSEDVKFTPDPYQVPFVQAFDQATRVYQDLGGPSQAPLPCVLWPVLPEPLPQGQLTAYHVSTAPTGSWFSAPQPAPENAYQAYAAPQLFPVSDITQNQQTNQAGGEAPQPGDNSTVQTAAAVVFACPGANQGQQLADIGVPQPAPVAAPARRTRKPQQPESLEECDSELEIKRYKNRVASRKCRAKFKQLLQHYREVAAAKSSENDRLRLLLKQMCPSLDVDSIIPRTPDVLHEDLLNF

[7] = NIH3T3 cell viability loss – ATP luminescence, mouse fibroblasts, counter-screen, dose response (AID 2010); assay type: functional, cell-based;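 also: cells exposed to compound for about 90 hours before reading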
[8] = viability of HCT116 lacking mutant beta-catenin – cell-based, human colon tumor, dose response (AID 1045); assay type: functional;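 also: HCT116 colon tumor cells with beta catenin knocked out; cells exposed to compound for 60 hours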
[9] = decrease of insulin promoter-GFP reporter – imaging, high-content screening, mouse beta cells (AID 1628); assay type: functional; settings: MIN6
[10] = MIN6 cell viability loss – mouse insulinoma, cytotoxicity control, dose response (AID 2122); assay type: functional;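 also: confirmatory high-throughput counterscreen run to flag cytotoxic compounds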
[11] = biological target: T3, Sphingosine 1-phosphate receptor 4 (Homo sapiens, UniProt O95977); experiment: Fluorescence dose response cell-based high throughput screening assay for antagonists of the Sphingosine 1-Phosphate Receptor 4 (S1P4). [Related pubchem assays: 1524 (Confirmation in triplicates.), 1510 (Primary screen.)]; assay type: functional
T3 sequence (O95977 whole entry): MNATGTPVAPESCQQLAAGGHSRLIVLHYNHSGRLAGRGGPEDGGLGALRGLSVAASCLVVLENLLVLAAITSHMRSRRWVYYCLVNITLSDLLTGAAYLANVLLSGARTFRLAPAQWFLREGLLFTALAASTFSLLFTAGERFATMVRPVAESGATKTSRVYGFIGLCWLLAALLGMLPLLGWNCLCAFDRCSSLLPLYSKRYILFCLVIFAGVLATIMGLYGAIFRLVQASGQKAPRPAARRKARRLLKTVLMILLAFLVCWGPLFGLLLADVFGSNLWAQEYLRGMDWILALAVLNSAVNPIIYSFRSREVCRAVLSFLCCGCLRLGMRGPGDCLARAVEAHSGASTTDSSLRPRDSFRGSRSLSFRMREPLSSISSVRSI

[12] = biological target: Sphingosine 1-phosphate receptor 1 (Homo sapiens, UniProt P21453); assay type: functional;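 also: Tango beta-arrestin reporter U2OS cells stimulated with S1P near its EC80; inhibitor potency meaning antagonism of receptor activation by the natural agonist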
Chain of Sphingosine 1-phosphate receptor 1 (P21453 whole entry): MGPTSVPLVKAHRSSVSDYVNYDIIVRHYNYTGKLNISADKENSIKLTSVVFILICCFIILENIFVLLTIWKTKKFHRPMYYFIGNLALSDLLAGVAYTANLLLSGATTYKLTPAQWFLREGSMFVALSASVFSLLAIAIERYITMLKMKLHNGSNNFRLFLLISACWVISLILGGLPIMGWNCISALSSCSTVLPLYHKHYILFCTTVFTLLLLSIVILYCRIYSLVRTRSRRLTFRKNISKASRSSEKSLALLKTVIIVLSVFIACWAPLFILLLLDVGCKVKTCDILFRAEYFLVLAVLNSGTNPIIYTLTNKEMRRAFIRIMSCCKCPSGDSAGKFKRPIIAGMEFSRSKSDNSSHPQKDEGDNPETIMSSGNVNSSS

[13] = reduction of Shn3 3'UTR-driven luciferase in osteoblasts – cell-based, Clone20 osteoblasts, firefly luciferase, cherry-picked, dose response (AID 624132); assay type: functional;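 also: firefly luciferase luminescence from reporter carrying the Shn3 3'UTR in osteoblasts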
[14] = loss of viability in HepG2 cells – cell-based, CellTiter-Glo, cherry-picked, cytotoxicity control for Shn3 inhibitor project, dose response (AID 624134); assay type: functional
[15] = non-specific 3'UTR reporter inhibition in Clone20-Shn3RL – cell-based, Renilla luciferase, cherry-picked, counter-screen for Shn3 inhibitor project, dose response (AID 624133); assay type: functional
Paired box protein Pax-8 = Paired box protein Pax-8 (Homo sapiens, UniProt Q06710); experiment: PAX8 transcriptional activity inhibition in RMG-I – RMG-I cells, luciferase, cherry-pick, dose response (AID 687027); assay type: functional, cell-based;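 also: luciferase reporter driven by Pax8 target thyroperoxidase promoter measured by SteadyGlo luminescence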
Chain of Paired box protein Pax-8 (Q06710 whole entry): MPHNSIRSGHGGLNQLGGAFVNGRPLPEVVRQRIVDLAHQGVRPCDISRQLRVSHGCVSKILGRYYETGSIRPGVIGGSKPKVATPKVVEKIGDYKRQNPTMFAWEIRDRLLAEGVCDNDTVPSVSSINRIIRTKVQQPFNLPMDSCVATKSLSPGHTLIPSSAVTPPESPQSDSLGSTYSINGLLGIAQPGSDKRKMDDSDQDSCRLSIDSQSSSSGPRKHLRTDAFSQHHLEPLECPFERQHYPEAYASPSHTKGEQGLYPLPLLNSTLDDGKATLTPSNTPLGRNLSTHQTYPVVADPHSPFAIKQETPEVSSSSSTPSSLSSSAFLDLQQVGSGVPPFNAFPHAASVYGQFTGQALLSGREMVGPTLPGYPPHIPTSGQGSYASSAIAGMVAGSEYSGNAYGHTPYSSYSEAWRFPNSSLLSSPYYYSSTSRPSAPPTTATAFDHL

[16] = A549 cell cytotoxicity, dose response, cytotoxicity control, plate reader, cherry-pick, antagonist series (AID 743412); assay type: functional, cell-based
[17] = toxicity toward HepG2 liver cells – cell-based, plate reader, cherry-pick, antagonist series, cytotoxicity control, dose response (AID 743416); assay type: functional
[18] = blockers of bursicon-stimulated LGR2 cAMP reporter – cell-based, HEK293, CRE-luciferase reporter, cherry pick, set 2, dose response (AID 743343); assay type: functional;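 also: transfected cells were stimulated with diluted bursicon conditioned medium after compound addition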
[19] = blockade of melanocortin 4 receptor signaling – cell-based, plate reader, cherry pick, counter-screen for LGR2 antagonist project, dose response (AID 743444); assay type: functional;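 also: transfected HEK 293 cells stimulated with alpha-MSH peptide; potency of inhibitors of the alpha-MSH evoked signal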
[20] = viability loss in HEK293 cells – cell-based, plate reader, cherry-picked samples, cytotoxicity control, dose response (AID 743446); assay type: functional
[21] = biological target: Induced myeloid leukemia cell differentiation protein Mcl-1 (Homo sapiens, UniProt Q07820); assay type: functional
Chain of Induced myeloid leukemia cell differentiation protein Mcl-1 (Q07820 whole entry): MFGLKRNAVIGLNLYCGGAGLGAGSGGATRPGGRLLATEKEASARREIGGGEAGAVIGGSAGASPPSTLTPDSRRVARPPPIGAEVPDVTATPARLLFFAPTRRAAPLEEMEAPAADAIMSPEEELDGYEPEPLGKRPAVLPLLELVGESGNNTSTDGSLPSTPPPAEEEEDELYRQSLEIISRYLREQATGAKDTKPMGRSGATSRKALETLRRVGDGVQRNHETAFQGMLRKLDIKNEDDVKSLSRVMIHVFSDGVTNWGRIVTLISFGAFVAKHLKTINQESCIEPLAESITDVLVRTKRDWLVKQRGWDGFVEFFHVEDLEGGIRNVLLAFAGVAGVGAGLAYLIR

[22] = A cytotoxicity screen of small molecule inhibitors of the PhoP region in Salmonella typhi identified in the primary screen. [Related pubchem assays: 1850, 1864, 1985 ]; assay type: functional

With `COc1ccc(-c2nn3c(-c4ccc(F)cc4)nnc3s2)cc1` the IC50 [1] was > 39.8 µM (not active) and the IC50 [2] was > 39.8 µM (not active).

For `O=C(Nc1ccc2ccccc2c1)Nc1ccc2snnc2c1`, the IC50 [3] was 10.1 µM (not active), the EC50 [4] was 1.94 µM (active) and the EC50 [5] was 14.9 µM (active). The IC50 [6] was > 111 µM (not active), the EC50 [7] was > 60 µM (not active) and the EC50 [8] was 15.9 µM (active).

For `COCCOC(=O)c1c(NC(=O)COC(=O)Cc2cccc(OC)c2)sc(C(N)=O)c1C`, the IC50 [3] was > 5.47 µM (active) and the IC50 [6] was > 111 µM (not active).

For `COc1ccc(-n2ncc(Cl)c(Cl)c2=O)cc1`, the IC50 [9] was 1.56 µM (active), the IC50 [10] was 1.11 µM (active) and the EC50 [4] was 1.59 µM (active). For the same compound, the EC50 [7] was 2.03 µM (active), the IC50 [11] was 2.09 µM (active) and the IC50 [12] was 21.6 µM (not active). The AC50 [13] was 3.36 µM (active), the AC50 [14] was 32.9 µM (active) and the AC50 [15] was 8.07 µM (active). For the same compound, the AC50 (Paired box protein Pax-8) was 5.62 µM (active), the AC50 [16] was 10.8 µM (active) and the AC50 [17] was 8.23 µM (active). For the same compound, the AC50 [18] was 20.2 µM (active), the AC50 [19] was 26.5 µM (active) and the AC50 [20] was 7.88 µM (active).

With `CC(=O)N(Cc1cccnc1)c1cccc(-c2nc3ccccc3s2)c1` the EC50 [4] was < 0.1 µM (active), the EC50 [7] was > 60 µM (not active) and the EC50 (cells) was 0.078 µM (active).

With `Cc1ccsc1C(=O)C1CCCN(Cc2cnc(N3CCCC3)s2)C1` (stereo unspecified) the EC50 [4] was < 0.1 µM (active), the EC50 [7] was > 60 µM (not active) and the EC50 (cells) was 0.137 µM (active).

For `COc1ccccc1NC(=O)C(=O)N/N=C/c1ccc([N+](=O)[O-])s1`, the EC50 [4] was 0.858 µM (active), the EC50 [7] was > 60 µM (not active) and the IC50 [21] was 2.56 µM (active).

For `CCN1C(=O)N/C(=C/c2cc(C)n(Cc3ccccc3)c2C)C1=O`, the EC50 [22] was > 50 µM (active).

With `O=C(CSC1=NCCS1)Nc1nc2c(s1)CCCC2` the EC50 [22] was > 50 µM (active).
